In US7655751B2, “Epidermal growth factor receptor-derived peptides” (Green Peptide Co., Ltd., priority 2004, dated 2010):
Peptide text beside a SMILES is read from it.

System: EGFR+ tumor cells
Test: 51Cr-release assay: HLA-restricted and peptide-specific cytotoxicity (inhibition and competition assays)
Format: cell-based, human
Details: 6 h 51Cr-release assay
Method: The values represent the mean ±SD of specific lysis (%).
Furthermore, the HLA-restricted and peptide-specific cytotoxicity were confirmed by the inhibition and competition assays, respectively.
For the inhibition assay, 20 μg/ml of anti-HLA-class I (W6/32, IgG2a), anti-HLA-class II (H-DR-1, IgG2a), anti-CD8 (Nu-Ts/c, IgG2a), anti-CD4 (Nu-Th/i, IgG1), and anti-CD14 (JML-H14, IgG2a) (as a negative control) mAbs were used. For the competition assay to study the peptide specific cytotoxicity, unlabeled C1R-2402 cells pulsed with the corresponding peptide or the HIV peptide as a negative control were added to the ^51Cr-release assay at a cold to hot target cell ratio of 10 to 1. The values represent the mean ±SD of specific lysis (%), and two-tailed Student's-t test was employed for the statistical analysis.

CC[C@H](C)[C@H](NC(=O)CNC(=O)[C@H](CC(C)C)NC(=O)[C@H](CC(C)C)NC(=O)[C@H](CCC(N)=O)NC(=O)[C@H](CCC(N)=O)NC(=O)[C@H](CC(=O)O)NC(=O)[C@H](CCCNC(=N)N)NC(=O)[C@H](CC(C)C)NC(=O)[C@H](Cc1ccc(O)cc1)NC(=O)[C@@H](N)CCCNC(=N)N)C(=O)O [HIV peptide] (H-RYLRDQQLLGI-OH)
HLA-A24-restricted cytotoxicity of PBMCs stimulated with the peptide: did not show the HLA-A24-restricted cytotoxicity
